Where a name gives a salt, the structure may show the parent alone.
Tested on: T1, sigma-1 receptor (S1R)
T1 construct: gene SIGMAR1; S1R-GFP expressed in CHO cells; with BiP
Test: S1R/BiP dissociation assay in S1R-GFP CHO cells (GFP-Trap, BiP ELISA)
Type: cell-based

SMILES	IC50
C[C@]12CC[C@H](O)CC1=CC[C@@H]1[C@@H]2CC[C@]2(C)C(=O)CC[C@@H]12 [DHEA]	1.17 µM
